Tests used:
Format in all cases: in vivo
corn (Zea mays) = experiment: Test A postemergence, corn; settings: approximately 10 d
Source text: (§1) Seeds of plant species selected from barnyardgrass (Echinochloa crus-galli), kochia (Kochia scoparia), ragweed (common ragweed, Ambrosia elatior), ryegrass, Italian (Italian ryegrass, Lolium multiflorum), foxtail, green (green foxtail, Setaria viridis), and pigweed (Amaranthus retroflexus) were planted into a blend of loam soil and sand and treated preemergence with a directed soil spray using test chemicals formulated in a non-phytotoxic solvent mixture which included a surfactant. At the same time, plants selected from these weed species and also wheat (Triticum aestivum), corn (Zea mays), blackgrass (Alopecurus myosuroides), and galium (catchweed bedstraw, Galium aparine) were planted in pots containing the same blend of loam soil and sand and treated with postemergence applications of test chemicals formulated in the same manner. Plants ranged in height from 2 to 10 cm and were in the one- to two-leaf stage for the postemergence treatment. Treated plants and untreated controls were maintained in a greenhouse for approximately 10 d, after which time all treated plants were compared to untreated controls and visually evaluated for injury. Plant response ratings, summarized in Table A, are based on a 0 to 100 scale where 0 is no effect and 100 is complete control. A dash (-) response means no test result.

[1] = test system: pigweed (Amaranthus retroflexus); experiment: Test A preemergence, pigweed; settings: approximately 10 d
Source text: as §1

[2] = test system: ducksalad (Heteranthera limosa); experiment: Test B flooded paddy test, ducksalad; settings: 250 g ai/ha, Flood (paddy water), 13 to 15 d
Description: (§2) Plant species in the flooded paddy test selected from rice (Oryza sativa), sedge, umbrella (small-flower umbrella sedge, Cyperus difformis), ducksalad (Heteranthera limosa), and barnyardgrass (Echinochloa crus-galli) were grown to the 2-leaf stage for testing. At time of treatment, test pots were flooded to 3 cm above the soil surface, treated by application of test compounds directly to the paddy water, and then maintained at that water depth for the duration of the test. Treated plants and controls were maintained in a greenhouse for 13 to 15 d, after which time all species were compared to controls and visually evaluated. Plant response ratings, summarized in Table B, are based on a scale of 0 to 100 where 0 is no effect and 100 is complete control. A dash (-) response means no test result.

[3] = test system: barnyardgrass (Echinochloa crus-galli); experiment: Test A preemergence, barnyardgrass; settings: approximately 10 d
Source text: as §1

[4] = test system: wheat (Triticum aestivum); experiment: Test A postemergence, wheat; settings: approximately 10 d
Source text: as §1

[5] = test system: barnyardgrass (Echinochloa crus-galli); experiment: Test A postemergence, barnyardgrass; settings: approximately 10 d
Source text: as §1

[6] = test system: ragweed (common ragweed, Ambrosia elatior); experiment: Test A postemergence, ragweed; settings: approximately 10 d
Source text: as §1

[7] = test system: galium (catchweed bedstraw, Galium aparine); experiment: Test A postemergence, galium; settings: approximately 10 d
Source text: as §1

[8] = test system: pigweed (Amaranthus retroflexus); experiment: Test A postemergence, pigweed; settings: approximately 10 d
Source text: as §1

Foxtail, Giant [9] = experiment: Test A preemergence, giant foxtail; settings: approximately 10 d
rice (Oryza sativa) = experiment: Test B flooded paddy test, rice; settings: 250 g ai/ha, Flood (paddy water), 13 to 15 d
Description: as §2

kochia (Kochia scoparia) [10] = experiment: Test A preemergence, kochia; settings: approximately 10 d
Source text: as §1

kochia (Kochia scoparia) [11] = experiment: Test A postemergence, kochia; settings: approximately 10 d
Source text: as §1

Foxtail, Giant [12] = experiment: Test A postemergence, giant foxtail; settings: approximately 10 d
[13] = test system: blackgrass (Alopecurus myosuroides); experiment: Test A postemergence, blackgrass; settings: approximately 10 d
Source text: as §1

[14] = test system: ragweed (common ragweed, Ambrosia elatior); experiment: Test A preemergence, ragweed; settings: approximately 10 d
Source text: as §1

[15] = test system: ryegrass, Italian (Italian ryegrass, Lolium multiflorum); experiment: Test A postemergence, Italian ryegrass; settings: approximately 10 d
Source text: as §1

[16] = test system: ryegrass, Italian (Italian ryegrass, Lolium multiflorum); experiment: Test A preemergence, Italian ryegrass; settings: approximately 10 d
Source text: as §1

[17] = test system: sedge, umbrella (small-flower umbrella sedge, Cyperus difformis); experiment: Test B flooded paddy test, umbrella sedge; settings: 250 g ai/ha, Flood (paddy water), 13 to 15 d
Description: as §2

[18] = test system: barnyardgrass (Echinochloa crus-galli); experiment: Test B flooded paddy test, barnyardgrass; settings: 250 g ai/ha, Flood (paddy water), 13 to 15 d
Description: as §2

Row | Compound | Plant response rating (0 to 100 scale, 0 is no effect, 100 is complete control) (corn (Zea mays); 31 g ai/ha) | Plant response rating (0 to 100 scale, 0 is no effect, 100 is complete control) (corn (Zea mays); 125 g ai/ha) | Plant response rating (0 to 100 scale, 0 is no effect, 100 is complete control) ([1]; 31 g ai/ha) | Plant response rating (0 to 100 scale, 0 is no effect, 100 is complete control) ([1]; 125 g ai/ha) | Plant response rating (scale of 0 to 100, 0 is no effect, 100 is complete control) [2] | Plant response rating (0 to 100 scale, 0 is no effect, 100 is complete control) ([3]; 31 g ai/ha) | Plant response rating (0 to 100 scale, 0 is no effect, 100 is complete control) ([3]; 125 g ai/ha) | Plant response rating (0 to 100 scale, 0 is no effect, 100 is complete control) ([4]; 31 g ai/ha) | Plant response rating (0 to 100 scale, 0 is no effect, 100 is complete control) ([4]; 125 g ai/ha) | Plant response rating (0 to 100 scale, 0 is no effect, 100 is complete control) ([5]; 31 g ai/ha) | Plant response rating (0 to 100 scale, 0 is no effect, 100 is complete control) ([5]; 125 g ai/ha) | Plant response rating (0 to 100 scale, 0 is no effect, 100 is complete control) ([6]; 31 g ai/ha) | Plant response rating (0 to 100 scale, 0 is no effect, 100 is complete control) ([6]; 125 g ai/ha) | Plant response rating (0 to 100 scale, 0 is no effect, 100 is complete control) ([7]; 31 g ai/ha) | Plant response rating (0 to 100 scale, 0 is no effect, 100 is complete control) ([7]; 125 g ai/ha) | Plant response rating (0 to 100 scale, 0 is no effect, 100 is complete control) ([8]; 31 g ai/ha) | Plant response rating (0 to 100 scale, 0 is no effect, 100 is complete control) ([8]; 125 g ai/ha) | Plant response rating (0 to 100 scale, 0 is no effect, 100 is complete control) (Foxtail, Giant [9]; 31 g ai/ha) | Plant response rating (0 to 100 scale, 0 is no effect, 100 is complete control) (Foxtail, Giant [9]; 125 g ai/ha) | Plant response rating (scale of 0 to 100, 0 is no effect, 100 is complete control) (rice (Oryza sativa)) | further results
1 | CNN=C1[C@H](C(=O)Nc2cccc(F)c2F)[C@@H](c2ccc(C(F)(F)F)cc2)CN1C (relative stereo) [Compound 3] | 20 | 30 | 0 | 70 | 100 | 30 | 90 | 0 | 30 | 60 | 70 | 0 | 50 | 60 | 80 | 0 | 90 | 70 | 90 | 0 | Plant response rating (0 to 100 scale, 0 is no effect, 100 is complete control) (kochia (Kochia scoparia) [10]; 31 g ai/ha): 0; Plant response rating (0 to 100 scale, 0 is no effect, 100 is complete control) (kochia (Kochia scoparia) [10]; 125 g ai/ha): 30; Plant response rating (0 to 100 scale, 0 is no effect, 100 is complete control) (kochia (Kochia scoparia) [11]; 31 g ai/ha): 20; Plant response rating (0 to 100 scale, 0 is no effect, 100 is complete control) (kochia (Kochia scoparia) [11]; 125 g ai/ha): 60; Plant response rating (0 to 100 scale, 0 is no effect, 100 is complete control) (Foxtail, Giant [12]; 31 g ai/ha): 40; Plant response rating (0 to 100 scale, 0 is no effect, 100 is complete control) (Foxtail, Giant [12]; 125 g ai/ha): 70; Plant response rating (0 to 100 scale, 0 is no effect, 100 is complete control) ([13]; 31 g ai/ha): 40; Plant response rating (0 to 100 scale, 0 is no effect, 100 is complete control) ([13]; 125 g ai/ha): 80; Plant response rating (0 to 100 scale, 0 is no effect, 100 is complete control) ([14]; 31 g ai/ha): 0; Plant response rating (0 to 100 scale, 0 is no effect, 100 is complete control) ([14]; 125 g ai/ha): 0; Plant response rating (0 to 100 scale, 0 is no effect, 100 is complete control) ([15]; 31 g ai/ha): 0; Plant response rating (0 to 100 scale, 0 is no effect, 100 is complete control) ([15]; 125 g ai/ha): 40; Plant response rating (0 to 100 scale, 0 is no effect, 100 is complete control) ([16]; 31 g ai/ha): 0; Plant response rating (0 to 100 scale, 0 is no effect, 100 is complete control) ([16]; 125 g ai/ha): 90; Plant response rating (scale of 0 to 100, 0 is no effect, 100 is complete control) [17]: 0; Plant response rating (scale of 0 to 100, 0 is no effect, 100 is complete control) [18]: 70
2 | CN(C)N=C1[C@H](C(=O)Nc2cccc(F)c2F)[C@@H](c2ccc(C(F)(F)F)cc2)CN1C (relative stereo) [Compound 4] | 0 | 20 | 0 | 60 | 75 | 50 | 90 | 0 | 20 | 0 | 60 | 0 | 30 | 60 | 70 | 0 | 70 | 50 | 90 | 0 | Plant response rating (0 to 100 scale, 0 is no effect, 100 is complete control) (kochia (Kochia scoparia) [10]; 31 g ai/ha): 0; Plant response rating (0 to 100 scale, 0 is no effect, 100 is complete control) (kochia (Kochia scoparia) [10]; 125 g ai/ha): 30; Plant response rating (0 to 100 scale, 0 is no effect, 100 is complete control) (kochia (Kochia scoparia) [11]; 31 g ai/ha): 0; Plant response rating (0 to 100 scale, 0 is no effect, 100 is complete control) (kochia (Kochia scoparia) [11]; 125 g ai/ha): 40; Plant response rating (0 to 100 scale, 0 is no effect, 100 is complete control) (Foxtail, Giant [12]; 31 g ai/ha): 0; Plant response rating (0 to 100 scale, 0 is no effect, 100 is complete control) (Foxtail, Giant [12]; 125 g ai/ha): 80; Plant response rating (0 to 100 scale, 0 is no effect, 100 is complete control) ([13]; 31 g ai/ha): 30; Plant response rating (0 to 100 scale, 0 is no effect, 100 is complete control) ([13]; 125 g ai/ha): 50; Plant response rating (0 to 100 scale, 0 is no effect, 100 is complete control) ([14]; 31 g ai/ha): 0; Plant response rating (0 to 100 scale, 0 is no effect, 100 is complete control) ([14]; 125 g ai/ha): 0; Plant response rating (0 to 100 scale, 0 is no effect, 100 is complete control) ([15]; 31 g ai/ha): 0; Plant response rating (0 to 100 scale, 0 is no effect, 100 is complete control) ([15]; 125 g ai/ha): 20; Plant response rating (0 to 100 scale, 0 is no effect, 100 is complete control) ([16]; 31 g ai/ha): 0; Plant response rating (0 to 100 scale, 0 is no effect, 100 is complete control) ([16]; 125 g ai/ha): 10; Plant response rating (scale of 0 to 100, 0 is no effect, 100 is complete control) [17]: 0; Plant response rating (scale of 0 to 100, 0 is no effect, 100 is complete control) [18]: 55
3 | CN1C[C@H](c2ccc(C(F)(F)F)cc2)[C@@H](C(=O)Nc2cccc(F)c2F)C1=NNC(=O)OC(C)(C)C (relative stereo) [Compound 8] | 20 | 70 | 30 | 80 | 60 | 90 | 90 | 0 | 40 | 60 | 80 | 0 | 0 | 60 | 70 | 30 | 40 | 90 | 90 | 0 | Plant response rating (0 to 100 scale, 0 is no effect, 100 is complete control) (kochia (Kochia scoparia) [10]; 31 g ai/ha): 20; Plant response rating (0 to 100 scale, 0 is no effect, 100 is complete control) (kochia (Kochia scoparia) [10]; 125 g ai/ha): 80; Plant response rating (0 to 100 scale, 0 is no effect, 100 is complete control) (kochia (Kochia scoparia) [11]; 31 g ai/ha): 0; Plant response rating (0 to 100 scale, 0 is no effect, 100 is complete control) (kochia (Kochia scoparia) [11]; 125 g ai/ha): 0; Plant response rating (0 to 100 scale, 0 is no effect, 100 is complete control) (Foxtail, Giant [12]; 31 g ai/ha): 50; Plant response rating (0 to 100 scale, 0 is no effect, 100 is complete control) (Foxtail, Giant [12]; 125 g ai/ha): 80; Plant response rating (0 to 100 scale, 0 is no effect, 100 is complete control) ([13]; 31 g ai/ha): 30; Plant response rating (0 to 100 scale, 0 is no effect, 100 is complete control) ([13]; 125 g ai/ha): 60; Plant response rating (0 to 100 scale, 0 is no effect, 100 is complete control) ([14]; 125 g ai/ha): 20; Plant response rating (0 to 100 scale, 0 is no effect, 100 is complete control) ([15]; 31 g ai/ha): 10; Plant response rating (0 to 100 scale, 0 is no effect, 100 is complete control) ([15]; 125 g ai/ha): 60; Plant response rating (0 to 100 scale, 0 is no effect, 100 is complete control) ([16]; 31 g ai/ha): 20; Plant response rating (0 to 100 scale, 0 is no effect, 100 is complete control) ([16]; 125 g ai/ha): 70; Plant response rating (scale of 0 to 100, 0 is no effect, 100 is complete control) [17]: 0; Plant response rating (scale of 0 to 100, 0 is no effect, 100 is complete control) [18]: 75
